We go through two compounds from publication PMC8695447, “Novel Small Molecules Capable of Blocking mtRAS-Signaling Pathway” (Frontiers in Oncology, 2021).

Assay [1] relates to SW480 (KRAS-G12V). The experiment in a line: Anti-proliferation assay on SW480. The class given is cell-based. Particulars: Homo sapiens, SW480; 72 h treatment; average with SD (n = 3, duplicate). The method, then:
(§1) Ba/F3-parental, OCI-AML3, U397 cells were purchased from DSMZ. MDA-MB-231, HCT-116, AsPC-1, H358, HT-29, SW480, and DU-145 cells were obtained from KCLB. MDA-MB-468 cells were obtained from ATCC. All cells were maintained in RPMI with 10% FBS and antibiotics. Cells were grown in a humidified 5% CO2 incubator at 37°C. Ba/F3-parental cells were grown in the presence of 10 ng/ml IL-3. NRAS-G12D or NRAS-G12V transformed Ba/F3 cell lines (Ba/F3-NRAS-G12D, and Ba/F3-NRAS-G12V, respectively) were cultured without IL-3, which were established by the procedure described as previously ([30]).
(§2) Approximately 3.0 × 10^3 cells/well were seeded in a 96-well cell culture plate. After stabilization, 1/3 serially diluted compound in DMSO was treated to the cell. […] All GI50 values were obtained in duplicate with three independent assays and averages with standard deviation are presented.

The test system of assay [2] is Ba/F3-NRAS-G12V cells. The experiment in a line: Anti-proliferation assay (CellTiter Glo) on Ba/F3-NRAS-G12V. In kind it is cell-based. As to conditions: Mus musculus, BaF3; 72 h treatment; average with SD (n = 3, duplicate). The method, then: as §1, §2
In general terms: Cellular ATP, detected with luciferase, serves as a proxy for viable cell number.

Assay [3] deals with Ba/F3-parental cells. The experiment in a line: Anti-proliferation assay (CellTiter Glo) on Ba/F3-parental. As to conditions: Mus musculus, BaF3; 72 h treatment; with 10 ng/ml IL-3; average with SD (n = 3, duplicate). The class given is cell-based. As for the experimental part: as §1, §2
The test system of assay [4] is MDA-MB-468 (KRAS, NRAS-wt). The experiment in a line: Anti-proliferation assay on MDA-MB-468. As to conditions: for GI50: Homo sapiens, MDA-MB-468, 72 h treatment, average with SD (n = 3, duplicate); for antiproliferative activity fold lower on MDA-MB-468 cells than on HCT-116 harboring KRAS-G13D mutation: MDA-MB-468 versus HCT-116; for times less active on MDA-MB-468 cells harboring wtRAS than on SW480 cells with KRAS-G12V mutation: MDA-MB-468 versus SW480. In kind it is cell-based. The method, then:
as §1, §2

The test system of assay [5] is Ba/F3-NRAS-G12D cells. The experiment in a line: Anti-proliferation assay (CellTiter Glo) on Ba/F3-NRAS-G12D. In kind it is cell-based. Particulars: Mus musculus, BaF3; 72 h treatment; average with SD (n = 3, duplicate). As for the experimental part: as §1, §2
The test system of assay [6] is DU-145 (KRAS-G12V). The experiment in a line: Anti-proliferation assay on DU-145. In kind it is cell-based. Particulars: Homo sapiens, DU-145; 72 h treatment; average with SD (n = 3, duplicate). The method, then: as §1, §2
The test system of assay [7] is U937 (KRAS, NRAS-wt). Briefly: Anti-proliferation assay on U937. The class given is cell-based. Particulars: Homo sapiens, U-937; 72 h treatment; average with SD (n = 3, duplicate). The method, then: as §1, §2
The test system of assay [8] is OCI-AML3 (NRAS-Q61L). The experiment in a line: Anti-proliferation assay on OCI-AML3. In kind it is cell-based, human. As to conditions: Homo sapiens, OCI-AML-3; 72 h treatment; average with SD (n = 3, duplicate). The method, then:
as §1, §2

Assay [9] concerns cleaved PARP in Ba/F3-NRAS-G12D and Ba/F3-NRAS-G12V cells. Briefly: Western blot, cleaved PARP in Ba/F3 cells transformed with mtRAS. In kind it is cell-based. As to conditions: 1 μM, 24 h. As for the experimental part: Approximately 1 × 10^6 cells per well were seeded in a 6-well cell culture plate. After cell adhesion, each compounds were treated for 2 h with indicated concentration and conducted brief washing twice by ice-cold PBS. Cells were lysed by NP40 buffer (50 mM Tris–HCl pH 7.4, 1% NP40, 2 mM EDTA, 150 mM NaCl) in the presence of protease inhibitor cocktail (Roche, #11873580001) and phosphatase inhibitor cocktail (Roche, #04906837001). Each sample was loaded with same amount of total protein and separated by SDS-PAGE gel. After transferred to nitrocellulose membrane, blocking with 5% skim milk (in TBS/T) was followed. […] Chemiluminescence signals were detected by ImageQuant™ LAS 4000 (GE Healthcare).
Figure 3 (A, B) The effects of SIJ1795 and SIJ1772 on apoptosis induction in Ba/F3 cells transformed with mtRAS (NRAS-G12D and NRAS-G12V). […] (C) Apoptotic cell population (annexin V-positive) was determined by flow cytometry analysis (n = 3). […] Statistical significance was calculated by a one-way ANOVA analysis (**p < 0.01, ***p < 0.001).

Assay [10] concerns cancer cells harboring mtRAS. Briefly: Colony formation assay (2D clonogenic assay). As to conditions: 0.1 μM, 14 days. In kind it is cell-based. The method, then:
Colony formation assay was conducted for 2D clonogenic assay. Approximately 1 × 10^3 cells/well were seeded in 6-well plate. After cellular attachment, indicated concentrations of compounds were treated for 14 days at 37°C. Colonies were stained by crystal violet solution for 30 min. The total area of each well was observed without magnification, and the number of colonies of each well were accessed using ImageJ software (n = 3).
Figure 7 (A–F) Colony formation assay results evaluating the effects of SIJ1795 and SIJ1772 on clonogenic abilities of on cancer cells harboring mtRAS. Cells were incubated with indicated compounds (0.01 µM or 0.1 µM) for 14 days. After staining with crystal violet, colonies were photographed without magnification. (G–L) Number of colonies (% of control) upon treatment with indicated compounds at 0.1 µM concentration were determined by ImageJ (n = 3, respectively). Statistical significance was calculated by using a one-way ANOVA analysis (**p < 0.01, ***p < 0.001, ****p < 0.0001).

By GI50 is commonly meant the concentration that inhibits growth by half. As for `CCN1CCN(c2cccc(Nc3ncc4c(n3)N(C)C(=O)N(c3cc(NC(=O)c5cccc(C(F)(F)F)c5)ccc3C)C4)c2)CC1` [SIJ1795, N-(3-(7-((3-(4-Ethylpiperazin-1-yl)phenyl)amino)-1-methyl-2-oxo-1,4-dihydropyrimido[4,5-d]pyrimidin-3(2H)-yl)-4-methylphenyl)-3-(trifluoromethyl)benzamide], the GI50 in assay [1] came out at 245 ± 12 nM; in [2], 75 ± 45 nM; in assay [3] it was 2020 ± 419 nM; in [4], 15700 ± 5310 nM; in assay [5] it was 82 ± 31 nM; in assay [6] it was 77 ± 43 nM. Also, the GI50 in assay [7] worked out at 1000 ± 126 nM; in assay [8] it was 52 ± 52 nM. In addition, the “antiproliferative activity fold lower on MDA-MB-468 cells than on HCT-116 harboring KRAS-G13D mutation” value in assay [4] stood at 476 fold. Besides, the “times less active on MDA-MB-468 cells harboring wtRAS than on SW480 cells with KRAS-G12V mutation” value in assay [4] came to 64 times. Besides, the “cleaved PARP level in Ba/F3-NRAS-G12D and Ba/F3-NRAS-G12V cells” value in [9] was “increased cleaved PARP level”. Besides, the colony formation entry in assay [10] is reported as “suppressed”.
As for `Cc1ccc(NC(=O)c2cccc(C(F)(F)F)c2)cc1N1Cc2cnc(Nc3cnn(C4CCN(S(C)(=O)=O)CC4)c3)nc2N(C)C1=O` [SIJ1772, N-(4-Methyl-3-(1-methyl-7-((1-(1-(methylsulfonyl)piperidin-4-yl)-1H-pyrazol-4-yl)amino)-2-oxo-1,4-dihydropyrimido[4,5-d]pyrimidin-3(2H)-yl)phenyl)-3-(trifluoromethyl)benzamide], the GI50 in assay [1] was determined as 447 ± 173 nM; in [2], 96 ± 9 nM; in [3] it was 1920 ± 86 nM; in [4], 44900 ± 6260 nM; in assay [5], 77 ± 16 nM; in assay [6], 29 ± 3 nM. Besides, the GI50 in assay [7] amounted to 9590 ± 832 nM; in assay [8], 65 ± 29 nM. For the same compound, in assay [4], the “antiproliferative activity fold lower on MDA-MB-468 cells than on HCT-116 harboring KRAS-G13D mutation” value came out at 1182 fold. In addition, the “times less active on MDA-MB-468 cells harboring wtRAS than on SW480 cells with KRAS-G12V mutation” value in assay [4] was 101 times. The “cleaved PARP level in Ba/F3-NRAS-G12D and Ba/F3-NRAS-G12V cells” value in [9] is listed as “increased cleaved PARP level”. The colony formation entry in assay [10] is “suppressed”.
